From patent publication US9695155B2, “Herbicidal substituted pyrimidinyloxy benzene compounds” (E. I. DU PONT DE NEMOURS AND COMPANY, priority 2013, dated 2017)

Columns and labels:
wheat = experiment: Test A postemergence; format: in vivo, Triticum aestivum; settings: 0 to 100 scale where 0 is no effect and 100 is complete control
In short: (§1)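 Compounds in non-phytotoxic solvent with surfactant applied as soil spray preemergence, or postemergence to plants 2-10 cm at one- to two-leaf stage, in loam/sand. After approximately 10 days in greenhouse, injury rated visually versus untreated controls, 0 (no effect) to 100 (complete control).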

sedge, umbrella = experiment: Test B flooded paddy test; format: in vivo, Cyperus difformis; settings: Flood, 250 g ai/ha; 0 to 100 scale where 0 is no effect and 100 is complete control
In short: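 2-leaf stage plants; pots flooded to 3 cm, compound added to paddy water, depth maintained. Greenhouse 13–15 d. Visual rating vs untreated controls, 0 (no effect) to 100 (complete control); dash = no result.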

blackgrass = experiment: Test C preemergence; format: in vivo, Alopecurus myosuroides; settings: for Blackgrass plant response rating: preemergence
In short: (§2)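 Visual injury score versus untreated controls, 0 = no effect, 100 = complete control, taken 13 to 15 days after treatment in the greenhouse. Pre-emergence pots held loam/sand; post-emergence plants grew in sphagnum peat/vermiculite mix and were sprayed at the 1- to 4-leaf stage.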

corn [1] = experiment: Test C preemergence; format: in vivo, Zea mays; settings: for Corn plant response rating: preemergence
In short: as §2

pigweed = experiment: Test C preemergence; format: in vivo, Amaranthus retroflexus; settings: for Pigweed plant response rating: preemergence
In short: as §2

velvetleaf [2] = experiment: Test C preemergence; format: in vivo, Abutilon theophrasti; settings: for Velvetleaf plant response rating: preemergence
In short: as §2

Italian ryegrass = experiment: Test C postemergence; format: in vivo, Lolium multiflorum; settings: for Plant response rating (0 to 100), Ryegrass, Italian: postemergence; for Plant response rating, Ryegrass, Italian: Postemergence, scale 0 to 100 (0 no effect, 100 complete control)
In short: as §2

wheat, winter = experiment: Test C postemergence; format: in vivo, Triticum aestivum; settings: for Plant response rating (0 to 100), Wheat: postemergence; for Plant response rating, Wheat: Postemergence, scale 0 to 100 (0 no effect, 100 complete control)
In short: as §2

galium = experiment: Test C postemergence; format: in vivo, Galium aparine; settings: for Plant response rating, Galium: Postemergence
In short: as §2

lambsquarters = experiment: Test C postemergence; format: in vivo, Chenopodium album; settings: for Plant response rating (0 to 100), Lambsquarters: postemergence; for Plant response rating, Lambsquarters: Postemergence, scale 0 to 100 (0 no effect, 100 complete control)
In short: as §2

barnyardgrass = experiment: Test C postemergence; format: in vivo, Echinochloa crus-galli; settings: for Plant response rating, Barnyardgrass: Postemergence
In short: as §2

oilseed rape = experiment: Test C postemergence; format: in vivo, Brassica napus; settings: for Plant response rating (0 to 100), Oilseed Rape: postemergence; for Plant response rating, Oilseed Rape: Postemergence, scale 0 to 100 (0 no effect, 100 complete control)
In short: as §2

velvetleaf [3] = experiment: Test C postemergence; format: in vivo, Abutilon theophrasti; settings: for Plant response rating (0 to 100), Velvetleaf: postemergence; for Plant response rating, Velvetleaf: Postemergence, scale 0 to 100 (0 no effect, 100 complete control)
In short: as §2

velvetleaf [4] = experiment: Test A preemergence; format: in vivo, Abutilon theophrasti
In short: as §1

corn [5] = experiment: Test A preemergence; format: in vivo, Zea mays
In short: as §1

[6] = 16 g ai/ha, scale 0 to 100 (0 no effect, 100 complete control)
[7] = 62 g ai/ha, scale 0 (no effect) to 100 (complete control)
[8] = 125 g ai/ha, scale 0 (no effect) to 100 (complete control)
[9] = Preemergence, 31 g ai/ha, scale 0 to 100, 0 no effect, 100 complete control
[10] = 16 g ai/ha, postemergence, visual rating, scale 0 to 100 (0 no effect, 100 complete control), 13 to 15 days
[11] = 31 g ai/ha, scale 0 to 100 (0 no effect, 100 complete control), 13 to 15 days
[12] = 62 g ai/ha, scale 0 to 100 (0 no effect, 100 complete control)
[13] = 125 g ai/ha, 0 to 100 scale where 0 is no effect and 100 is complete control
[14] = 500 g ai/ha, 0 to 100 scale, 0 no effect, 100 complete control, approx. 10 days

## N#Cc1cccc(Oc2ncc(F)cn2)c1-n1cc(I)cn1 [Compound 86]
wheat; 125 g ai/ha
  Plant response rating, Wheat: 50
wheat; 500 g ai/ha
  Plant response rating, Wheat: 90
sedge, umbrella
  Plant response rating, Sedge, Umbrella: 65
blackgrass; [6]
  Blackgrass plant response rating: 0
blackgrass; [7]
  Blackgrass plant response rating: 90
blackgrass; [8]
  Blackgrass plant response rating: 98
blackgrass; [9]
  Plant response rating, Blackgrass: 20
Corn [1]; [6]
  Corn plant response rating: 0
Corn [1]; [7]
  Corn plant response rating: 30
Corn [1]; [8]
  Corn plant response rating: 80
Corn [1]; [9]
  Plant response rating, Corn: 25
pigweed; [6]
  Pigweed plant response rating: 90
pigweed; [7]
  Pigweed plant response rating: 100
pigweed; [8]
  Pigweed plant response rating: 100
pigweed; [9]
  Plant response rating, Pigweed: 100
Velvetleaf [2]; [6]
  Velvetleaf plant response rating: 20
Velvetleaf [2]; [7]
  Velvetleaf plant response rating: 100
Velvetleaf [2]; [8]
  Velvetleaf plant response rating: 100
Velvetleaf [2]; [9]
  Plant response rating, Velvetleaf: 50
Italian ryegrass; 125 g ai/ha
  Plant response rating (0 to 100), Ryegrass, Italian: 5
Italian ryegrass; 31 g ai/ha, 13 to 15 days
  Plant response rating, Ryegrass, Italian: 0
Italian ryegrass; 62 g ai/ha
  Plant response rating, Ryegrass, Italian: 5
wheat, winter; 125 g ai/ha
  Plant response rating (0 to 100), Wheat: 0
wheat, winter; 31 g ai/ha, 13 to 15 days
  Plant response rating, Wheat: 0
wheat, winter; 62 g ai/ha
  Plant response rating, Wheat: 0
galium; [10]
  Galium plant response rating: 55
galium; 125 g ai/ha, postemergence
  Plant response rating (0 to 100), Galium: 80
galium; [11]
  Plant response rating, Galium: 60
galium; [12]
  Plant response rating, Galium: 80
lambsquarters; 125 g ai/ha
  Plant response rating (0 to 100), Lambsquarters: 85
lambsquarters; 31 g ai/ha, 13 to 15 days
  Plant response rating, Lambsquarters: 45
lambsquarters; 62 g ai/ha
  Plant response rating, Lambsquarters: 65
barnyardgrass; [10]
  Barnyardgrass plant response rating: 0
barnyardgrass; 125 g ai/ha, postemergence
  Plant response rating (0 to 100), Barnyardgrass: 5
barnyardgrass; [11]
  Plant response rating, Barnyardgrass: 5
barnyardgrass; [12]
  Plant response rating, Barnyardgrass: 5
Oilseed rape; 125 g ai/ha
  Plant response rating (0 to 100), Oilseed Rape: 45
Oilseed rape; 31 g ai/ha, 13 to 15 days
  Plant response rating, Oilseed Rape: 40
Oilseed rape; 62 g ai/ha
  Plant response rating, Oilseed Rape: 60
Velvetleaf [3]; 125 g ai/ha
  Plant response rating (0 to 100), Velvetleaf: 65
Velvetleaf [3]; 31 g ai/ha, 13 to 15 days
  Plant response rating, Velvetleaf: 25
Velvetleaf [3]; 62 g ai/ha
  Plant response rating, Velvetleaf: 65

## N#Cc1cccc(Oc2ncc(Cl)cn2)c1-n1cnc(Br)c1 [Compound 74]
Velvetleaf [4]; [13]
  Plant response rating, Velvetleaf: 70
Velvetleaf [4]; [14]
  Velvetleaf plant response rating: 100
Corn [5]; [13]
  Plant response rating, Corn: 0
Corn [5]; [14]
  Corn plant response rating: 40
wheat; 125 g ai/ha
  Plant response rating, Wheat: 0
wheat; 500 g ai/ha
  Plant response rating, Wheat: 50
sedge, umbrella
  Plant response rating, Sedge, Umbrella: 70
Italian ryegrass; 125 g ai/ha
  Plant response rating (0 to 100), Ryegrass, Italian: 0
Italian ryegrass; 250 g ai/ha
  Plant response rating (0 to 100), Ryegrass, Italian: 5
Italian ryegrass; 31 g ai/ha, 13 to 15 days
  Plant response rating, Ryegrass, Italian: 0
Italian ryegrass; 62 g ai/ha
  Plant response rating, Ryegrass, Italian: 0
wheat, winter; 125 g ai/ha
  Plant response rating (0 to 100), Wheat: 0
wheat, winter; 250 g ai/ha
  Plant response rating (0 to 100), Wheat: 5
wheat, winter; 31 g ai/ha, 13 to 15 days
  Plant response rating, Wheat: 0
wheat, winter; 62 g ai/ha
  Plant response rating, Wheat: 0
galium; 125 g ai/ha, postemergence
  Plant response rating (0 to 100), Galium: 65
galium; 250 g ai/ha, postemergence
  Plant response rating (0 to 100), Galium: 65
galium; [11]
  Plant response rating, Galium: 40
galium; [12]
  Plant response rating, Galium: 55
lambsquarters; 125 g ai/ha
  Plant response rating (0 to 100), Lambsquarters: 75
lambsquarters; 250 g ai/ha
  Plant response rating (0 to 100), Lambsquarters: 85
lambsquarters; 31 g ai/ha, 13 to 15 days
  Plant response rating, Lambsquarters: 40
lambsquarters; 62 g ai/ha
  Plant response rating, Lambsquarters: 75
barnyardgrass; 125 g ai/ha, postemergence
  Plant response rating (0 to 100), Barnyardgrass: 5
barnyardgrass; 250 g ai/ha, postemergence
  Plant response rating (0 to 100), Barnyardgrass: 15
barnyardgrass; [11]
  Plant response rating, Barnyardgrass: 0
barnyardgrass; [12]
  Plant response rating, Barnyardgrass: 5
Oilseed rape; 125 g ai/ha
  Plant response rating (0 to 100), Oilseed Rape: 40
Oilseed rape; 250 g ai/ha
  Plant response rating (0 to 100), Oilseed Rape: 65
Oilseed rape; 31 g ai/ha, 13 to 15 days
  Plant response rating, Oilseed Rape: 35
Oilseed rape; 62 g ai/ha
  Plant response rating, Oilseed Rape: 40
Velvetleaf [3]; 125 g ai/ha
  Plant response rating (0 to 100), Velvetleaf: 50
Velvetleaf [3]; 250 g ai/ha
  Plant response rating (0 to 100), Velvetleaf: 65
Velvetleaf [3]; 31 g ai/ha, 13 to 15 days
  Plant response rating, Velvetleaf: 30
Velvetleaf [3]; 62 g ai/ha
  Plant response rating, Velvetleaf: 35
